Laboratory results reported in patent US11173124B2, “Oral delivery of GLP-1 peptide analogs” (MEDIMMUNE LIMITED, priority 2017, dated 2021).
≈ marks a conversion by molar mass, not a printed value. One block for each compound: values may come before it. Starred links: 1 amine or outer side, 2 acyl side, 3 side chain; linkers in the order of their positions; H or OH if unused. Non-standard residues stand in square brackets, D forms with d. Residues, ends and D or L forms follow the SMILES beside them. Groups on a side chain read outwards from the residue. ξ: configuration not given here. *: point of attachment. γGlu = O=C(O)[C@H](CCC(=O)[*:2])N[*:1]; ξαMeF = CC(N)(Cc1ccccc1)C(=O)O; Lauroyl = CCCCCCCCCCCC(=O)*; ξαMeK = CC(N)(CCCCN)C(=O)O; ξαMeS = CC(N)(CO)C(=O)O; AEEA = NCCOCCOCC(=O)O; Aib = CC(C)(N)C(=O)O

Tests used:
physchem = test: physchem
From the text: A known amount of the permeation enhancer, the peptide, or both were combined with increasing amounts of buffer until the permeation enhancer and/or the peptide were completely solubilized.

[1] = Canine site of absorption study, IntelliCap, SEQ ID NO:5 solution formulations (Example 11); format: in vivo, Beagle dogs; settings: for bioavailability / AUC(0-t) / Cmax / Tmax: dog; for bioavailability: plasma; for AUC(0-t) / Cmax / Tmax: in vivo
From the text: The IntelliCap® system, an electronic oral drug delivery and monitoring device, was used to determine regional absorption for solution formulations. In the form of a capsule, the IntelliCap® incorporates a microprocessor, battery, pH sensor, temperature sensor, radio frequency (RF) wireless transceiver, fluid pump, and drug reservoir. The IntelliCap® system can determine the drug's position in the gastrointestinal (GI) tract by a pH monitoring sensor in the capsule, thereby eliminating the need for in vivo imaging. This system was employed to assess the site of absorption of GLP-1 peptide analogs in the GI tract following oral delivery to canines (Beagle dogs). Solution formulations without permeation enhancer excipients were used as intravenous (IV) and subcutaneous (SC) controls in the study. In brief, solution formulations were prepared and transferred to the IntelliCap® capsule which was dosed to canines, wherein the formulation was released at a specific site in the GI tract.
An additional site of absorption study was performed to evaluate the best site of absorption of the SEQ ID NO:5 GLP-1 peptide analog solution formulations after oral administration of IntelliCap capsules to canines (Beagle dogs). Delivery of the SEQ ID NO:5 peptide to the proximal small bowel (after pylorus passage), distal small bowel (before ileocecal passage), and proximal colon (after ileocecal passage) were studied.

Caco-2 cells = test: Caco-2 study, Permeability (%) of lipidated peptides (Example 3); format: in vitro ADME, human; settings: 0.1 mg/mL peptide
From the text: The Caco-2 cell line is a continuous cell line of heterogeneous human epithelial colorectal adenocarcinoma cells, which when cultured under specific conditions, become differentiated and polarized such that their phenotype, morphologically and functionally, resembles the enterocytes lining the small intestine. Caco-2 cells express tight junctions, microvilli, and a number of enzymes and transporters that are characteristic of such enterocytes. Caco-2 cells are most commonly used as a tight junction monolayer that provides a physical and biochemical barrier to the passage of drugs and thus serves as an in vitro model of the human small intestinal mucosa to predict the absorption of orally administered drugs. Caco-2 permeability assays were performed by Cyprotex US, LLC (MA, USA) to assess the efficacy of different permeation enhancers. Caco-2 cells were grown on Transwell filters until a transepithelial electric resistance of ˜1000 ohms/cm^2 was achieved. The cells were incubated for three hours with media containing test samples on the apical (top) side of the cell layer, and with blank media on the basolateral (lower) side of the cell layer. Media from the apical and basolateral sides was collected separately after three hours and evaluated for the amount of peptide present on each side. Table 2 gives the permeability coefficient (Papp) of the various test samples, which include the SEQ ID NO:3 GLP-1 peptide in the presence of different excipients.
A following Caco-2 study was performed to evaluate the permeability of different peptides in the presence of various permeation enhancers. Permeability (%) was calculated by dividing the cumulative amount of molecules transported with the original loading amount. Concentrations of peptides in starting sample and apical and basal solutions after incubation for pre-determined periods were analyzed by HPLC. Sodium chenodeoxycholate at 25 mg/mL effected the highest permeability of each tested peptide (Table 4).

[2] = Canine tablet site of absorption study, SEQ ID NO:6 tablets in acid-resistant capsules or IntelliCap (Example 12); format: in vivo; settings: dog; for Tmax / half-life / AUC(0-t) / Cmax: in vivo; for bioavailability: plasma
Experimental: A third site of absorption study was performed to evaluate the absorption sites and tablet formulations in acid-resistant capsules in canines. The tablet manufacturing process was as follows: All ingredients were passed through a US sieve #35 (0.5 mm opening), and the resultant powder was compacted using a pellet press. Compacted material was again passed through a US sieve #35 (0.5 mm opening) to form granules. […] Tablets in this study were either placed in acid-resistant capsules (Table 18, Groups 1 and 2) or in IntelliCap® (Table 18, Groups 3 and 4).

[3] = Third rat ID infusion study, stabilized peptides vs semaglutide (Example 6); settings: in vivo
Experimental: The third rat ID infusion study was performed to compare bioavailability of stabilized peptides MEDI7219 (SEQ ID NO:2) and SEQ ID NO:6 with that of semaglutide, H-His-Aib-[…]AEEAc-AEEAc-γ-Glu-17-carboxyheptadecanoyl)-[…]OH (SEQ ID NO:11), (Novo Nordisk), an un-stabilized GLP-1 peptide analog, that only has Aib in its sequence for protection from circulating DPP-IV peptidases, (Table 7 and FIG. 2B).

[4] = Intravenous, 0.03 mg/kg, 0.3 mg/mL peptide in 50 mM Tris, 150 mM Mannitol, 0.02% PS80, pH 8.0
[5] = IntelliCap, Distal small bowel, 0.81 mg/kg, 12 mg/mL peptide, 25 mg/mL Na CDC, 12.5 mg/mL PG, pH 8.0
[6] = IntelliCap, Proximal colon, 0.85 mg/kg, 12 mg/mL peptide, 25 mg/mL Na CDC, 12.5 mg/mL PG, pH 8.0
[7] = IntelliCap, Proximal small bowel, 0.86 mg/kg, 12 mg/mL peptide, 25 mg/mL Na CDC, 12.5 mg/mL PG, pH 8.0
[8] = sc, Subcutaneous, 0.03 mg/kg, 0.3 mg/mL peptide in 50 mM Tris, 150 mM Mannitol, 0.02% PS80, pH 8.0
[9] = 5.0 mg/mL Sodium Chenodeoxycholate
[10] = 25 mg/mL Sodium Chenodeoxycholate
[11] = canine, Intravenous, 0.031 mg/kg, 0.031 mg/mL peptide in Tris Mannitol, pH 8.0
[12] = canine, Oral IntelliCap released in proximal colon, 0.96 mg/kg, 10 mg peptide, 100 mg Na CDC, 50 mg PG tablet
[13] = canine, Oral, 0.54 mg/kg, 5 mg peptide, 100 mg Na CDC, 50 mg PG tablet in Acid-resistant capsule
[14] = canine, Oral, 1.08 mg/kg, 10 mg peptide, 100 mg Na CDC, 50 mg PG tablet in Acid-resistant capsule

solubility (physchem; pH 5, aqueous buffer, thermodynamic from solid): 3000 µg/mL (≈ 14.1 mM)
solubility (physchem; pH 6, aqueous buffer, thermodynamic from solid): 3000 µg/mL (≈ 14.1 mM)
solubility (physchem; pH 7): 3300 µg/mL (≈ 15.6 mM)
solubility as a function of pH (in words) (physchem; pH 7.5): low solubility at pH 7.5 and above
solubility (physchem; pH 7.5, aqueous buffer, thermodynamic from solid): < 250 µg/mL
solubility (physchem; pH 8, aqueous buffer, thermodynamic from solid): < 250 µg/mL
solubility (physchem; pH 9, aqueous buffer, thermodynamic from solid): < 250 µg/mL
SMILES: CCCOC(=O)c1cc(O)c(O)c(O)c1 [Propyl Gallate]

bioavailability ([1]; Beagle, po, IntelliCap, Distal small bowel, 0.81 mg/kg, 12 mg/mL peptide, 25 mg/mL Na CDC, 12.5 mg/mL PG, pH 8.0): 0.3%
bioavailability ([1]; Beagle, po, IntelliCap, Proximal colon, 0.85 mg/kg, 12 mg/mL peptide, 25 mg/mL Na CDC, 12.5 mg/mL PG, pH 8.0): 2.6%
bioavailability ([1]; Beagle, po, IntelliCap, Proximal small bowel, 0.86 mg/kg, 12 mg/mL peptide, 25 mg/mL Na CDC, 12.5 mg/mL PG, pH 8.0): 0.5%
F [1, 4]: 100%
bioavailability ([1]; beagle, sc, Subcutaneous, 0.03 mg/kg, 0.3 mg/mL peptide in 50 mM Tris, 150 mM Mannitol, 0.02% PS80, pH 8.0): 87%
AUC(0-t) [1, 5]: 166 ng·h/mL
Cmax [1, 5]: 51 ng/mL
Tmax [1, 5]: 0.25 h
AUC(0-t) [1, 6]: 1500 ng·h/mL
Cmax [1, 6]: 301 ng/mL
Tmax [1, 6]: 0.25 h
AUC(0-t) [1, 7]: 297 ng·h/mL
Cmax [1, 7]: 75 ng/mL
Tmax [1, 7]: 0.25 h
AUC(0-t) [1, 4]: 2000 ng·h/mL
Cmax [1, 4]: 449 ng/mL
Tmax [1, 4]: 0.25 h
AUC(0-t) [1, 8]: 1770 ng·h/mL
Cmax [1, 8]: 144 ng/mL
Tmax [1, 8]: 4 h
Permeability (%) (Caco-2 cells; [9]): 3.2%
Permeability (%) (Caco-2 cells; [10]): 10.4%
SMILES: CCCCCCCCCCCC(=O)N[C@@H](CCC(=O)NCCOCCOCC(=O)NCCOCCOCC(=O)NCCCC[C@H](NC(=O)[C@H](C)NC(=O)[C@@H](NC(=O)[C@H](Cc1ccccc1)NC(=O)[C@H](CCC(=O)O)NC(=O)C(C)(CCCCN)NC(=O)[C@H](C)NC(=O)[C@H](C)NC(=O)[C@H](CCC(=O)O)NC(=O)CNC(=O)[C@H](CCC(=O)O)NC(=O)[C@H](CC(C)C)NC(=O)[C@H](Cc1ccc(O)cc1)NC(=O)[C@H](CCCCNC(=O)COCCOCCNC(=O)COCCOCCNC(=O)CC[C@H](NC(=O)CCCCCCCCCCC)C(=O)O)NC(=O)[C@H](CO)NC(=O)[C@@H](NC(=O)[C@H](CC(=O)O)NC(=O)[C@H](CO)NC(=O)[C@@H](NC(=O)C(C)(Cc1ccccc1)NC(=O)[C@H](CO)NC(=O)CNC(=O)[C@H](CCC(=O)O)NC(=O)C(C)(C)NC(=O)[C@@H](N)Cc1c[nH]cn1)[C@@H](C)O)C(C)C)[C@@H](C)CC)C(=O)N[C@H](C(=O)N[C@H](C(=O)N[C@@H](CCC(=O)O)C(=O)NCC(=O)NCC(N)=O)C(C)C)C(C)C)C(=O)O (stereo partly shown) [SEQ ID NO: 5, Free-H-[AIB]-EGS-[αMePhe]-TSDVSK[(PEG2)2-γE-Lauroyl]-YLEGEAA-[αMeLys]-EFIAK[(PEG2)2-γE-Lauroyl]-VVEGG-amide]

Tmax ([2]; po, […]): 0.857 h
half-life ([2]; po, […]): 6.76 h
AUC(0-t) [2, 11]: 147 ± 19.9 ng·h/mL
Cmax [2, 11]: 27.3 ng/mL
Tmax [2, 11]: 0.444 h
half-life [2, 11]: 7.21 h
AUC(0-t) [2, 12]: 1490 ng·h/mL
Cmax [2, 12]: 210 ng/mL
Tmax [2, 12]: 2.14 h
half-life [2, 12]: 5.37 h
AUC(0-t) [2, 13]: 325 ± 467 ng·h/mL
Cmax [2, 13]: 47.3 ng/mL
Tmax [2, 13]: 1.64 h
half-life [2, 13]: 6.99 h
AUC(0-t) [2, 14]: 1970 ng·h/mL
Cmax [2, 14]: 279 ng/mL
Tmax [2, 14]: 1.79 h
half-life [2, 14]: 6.31 h
bioavailability ([2]; po, […]): 2.46%
bioavailability [2, 12]: 2.79%
bioavailability [2, 13]: 1.3%
bioavailability [2, 14]: 3.63%
Permeability (%) (Caco-2 cells; [9]): 1.21%
Permeability (%) (Caco-2 cells; [10]): 13.3%
half-life [3]: 9 h
bioavailability ([3]; 1 mg/kg): 1.2%
AUC ([3]; iv, 0.01 mg/kg): 1080 ng·h/mL
Cmax ([3]; iv, 0.01 mg/kg): 211 ng/mL
F ([3]; iv, 0.01 mg/kg): 100%
half-life ([3]; iv, 0.01 mg/kg): 9.2 h
SMILES: CCCCCCCCCCCC(=O)N[C@@H](CCC(=O)NCCOCCOCC(=O)NCCOCCOCC(=O)NCCCC[C@H](NC(=O)[C@H](C)NC(=O)[C@@H](NC(=O)[C@H](Cc1ccccc1)NC(=O)[C@H](CCC(=O)O)NC(=O)C(C)(CCCCN)NC(=O)[C@H](C)NC(=O)[C@H](C)NC(=O)[C@H](CCC(=O)O)NC(=O)CNC(=O)[C@H](CCC(=O)O)NC(=O)[C@H](CC(C)C)NC(=O)[C@H](CCCCNC(=O)COCCOCCNC(=O)COCCOCCNC(=O)CC[C@H](NC(=O)CCCCCCCCCCC)C(=O)O)NC(=O)[C@H](CO)NC(=O)C(C)(CO)NC(=O)[C@@H](NC(=O)[C@H](CC(=O)O)NC(=O)[C@H](CO)NC(=O)[C@@H](NC(=O)C(C)(Cc1ccccc1)NC(=O)[C@H](CO)NC(=O)CNC(=O)[C@H](CCC(=O)O)NC(=O)C(C)(C)NC(=O)[C@@H](N)Cc1c[nH]cn1)[C@@H](C)O)C(C)C)[C@@H](C)CC)C(=O)N[C@H](C(=O)N[C@H](C(=O)N[C@@H](CCC(=O)O)C(=O)NCC(=O)NCC(N)=O)C(C)C)C(C)C)C(=O)O (stereo partly shown) [SEQ ID NO: 6, Free-H-[AIB]-EGS-[αMePhe]-TSDV-[αMeSer]-SK[(PEG2)2-γE-Lauroyl]-LEGEAA-[αMeLys]-EFIAK[(PEG2)2-γE-Lauroyl]-VVEGG-amide] (H-H[Aib]EGS[ξαMeF]TSDV[ξαMeS]SK([AEEA-AEEA-γGlu-Lauroyl])LEGEAA[ξαMeK]EFIAK([AEEA-AEEA-γGlu-Lauroyl])VVEGG-NH2)
F [3]: significantly higher absolute bioavailability via ID route than semaglutide

solubility (physchem; pH 5.5): >200000 µg/mL
SMILES: C[C@H](CCC(=O)[O-])[C@H]1CC[C@H]2[C@@H]3[C@H](O)C[C@@H]4C[C@H](O)CC[C@]4(C)[C@H]3CC[C@]12C.[Na+] [Sodium Chenodeoxycholate]
